In US10526337B2, “Heteroaryl derivative or pharmaceutically acceptable salt thereof, preparation method therefor, and pharmaceutical composition for preventing or treating diseases associated with PI3 kinases, containing same as active ingredient” (KOREA RESEARCH INSTITUTE OF CHEMICAL TECHNOLOGY, priority 2015, dated 2020):

How the values were obtained:
Details in all cases: ATP=10 uM, sample concentration=100 nM
[1] = biological target: T1, PI3 Kinase (p110α/p85α) (h) (Homo sapiens, UniProt P42336); assay: Inhibition of phosphatidylinositol 3-kinase alpha (PI3K α), pAkt Western blotting in EGF-stimulated MDA-MB-453 cells; format: cell-based
T1 construct: endogenous in cells; host or cells: MDA-MB-453
T1 sequence (P42336 whole entry): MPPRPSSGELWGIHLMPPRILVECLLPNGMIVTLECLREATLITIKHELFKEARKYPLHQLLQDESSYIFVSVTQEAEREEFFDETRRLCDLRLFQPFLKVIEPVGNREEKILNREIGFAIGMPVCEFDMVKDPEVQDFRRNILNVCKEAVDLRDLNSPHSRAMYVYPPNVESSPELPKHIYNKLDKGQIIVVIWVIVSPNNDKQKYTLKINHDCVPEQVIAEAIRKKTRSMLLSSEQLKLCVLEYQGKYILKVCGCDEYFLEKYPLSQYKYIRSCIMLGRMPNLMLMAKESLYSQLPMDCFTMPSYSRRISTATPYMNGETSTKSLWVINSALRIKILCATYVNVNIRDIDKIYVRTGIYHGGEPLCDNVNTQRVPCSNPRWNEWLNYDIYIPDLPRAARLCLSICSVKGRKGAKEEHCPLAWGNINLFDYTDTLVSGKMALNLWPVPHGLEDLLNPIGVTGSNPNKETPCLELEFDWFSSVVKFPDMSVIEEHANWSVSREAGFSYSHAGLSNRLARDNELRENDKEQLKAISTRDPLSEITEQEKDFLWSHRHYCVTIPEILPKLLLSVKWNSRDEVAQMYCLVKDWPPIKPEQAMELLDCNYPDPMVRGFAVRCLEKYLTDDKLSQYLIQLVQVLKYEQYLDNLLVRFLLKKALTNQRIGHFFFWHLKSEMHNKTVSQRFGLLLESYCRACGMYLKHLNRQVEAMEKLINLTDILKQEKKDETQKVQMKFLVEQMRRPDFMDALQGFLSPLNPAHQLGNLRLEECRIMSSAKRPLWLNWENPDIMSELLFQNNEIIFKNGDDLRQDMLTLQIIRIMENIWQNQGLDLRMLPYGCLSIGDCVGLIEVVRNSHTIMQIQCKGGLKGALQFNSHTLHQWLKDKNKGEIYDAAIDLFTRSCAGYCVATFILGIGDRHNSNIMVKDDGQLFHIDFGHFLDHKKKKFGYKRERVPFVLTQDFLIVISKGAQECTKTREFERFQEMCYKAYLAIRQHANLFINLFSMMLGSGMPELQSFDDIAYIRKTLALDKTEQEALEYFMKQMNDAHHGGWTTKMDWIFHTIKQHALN
T1 sequence (P27986 2-724 partner limits assumed): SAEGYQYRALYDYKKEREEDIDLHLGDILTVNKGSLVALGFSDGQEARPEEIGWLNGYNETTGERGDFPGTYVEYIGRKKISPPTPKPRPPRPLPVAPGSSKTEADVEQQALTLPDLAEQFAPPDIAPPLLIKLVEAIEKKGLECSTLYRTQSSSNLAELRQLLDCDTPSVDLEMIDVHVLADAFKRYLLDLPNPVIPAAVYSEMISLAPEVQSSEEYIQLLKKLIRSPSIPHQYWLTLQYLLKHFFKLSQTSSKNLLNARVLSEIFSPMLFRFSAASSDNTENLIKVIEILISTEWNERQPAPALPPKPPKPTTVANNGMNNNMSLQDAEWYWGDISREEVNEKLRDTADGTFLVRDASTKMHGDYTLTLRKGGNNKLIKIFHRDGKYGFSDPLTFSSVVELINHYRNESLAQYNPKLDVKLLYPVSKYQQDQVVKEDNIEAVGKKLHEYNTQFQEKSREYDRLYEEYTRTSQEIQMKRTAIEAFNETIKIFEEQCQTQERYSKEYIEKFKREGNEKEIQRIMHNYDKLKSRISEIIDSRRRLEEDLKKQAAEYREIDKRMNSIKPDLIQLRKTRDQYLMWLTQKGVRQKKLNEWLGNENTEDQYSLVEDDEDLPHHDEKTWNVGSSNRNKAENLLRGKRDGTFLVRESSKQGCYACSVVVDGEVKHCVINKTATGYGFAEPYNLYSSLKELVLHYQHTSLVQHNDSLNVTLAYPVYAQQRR
Method: The inhibition of phosphatidylinositol 3 kinase alpha (PI3K α) by those compounds prepared in Examples 1˜98 was investigated by the following experiment. The inhibition activity of each compound was measured in the following conditions: ATP=10 uM, and sample concentration=100 nM.
Human breast cancer cells (MDA-MB-453) cultured in DMEM (Dulbecco's Modified Eagle Medium, Hyclon, SH30243.01) supplemented with 10% fetal bovine serum (Hyclon, USA) were distributed in a 12-well plate at the density of 1,000,000 cells/well. The cells were stabilized in a 37° C. CO2 for 24 hours and then treated with each compound for 1 and half hours. The cells were treated with 10 ng/mL of EGF (Epidermal Growth Factor, 10 μg/mL; R&D, 2150-C5) to increase the intracellular activity of PI3K alpha. 5 minutes later, the medium was discarded and the cells were washed with cold PBS (phosphate buffered saline, Gibco, 14190-250). PBS was then eliminated completely by using a pipette. Western blotting was performed as described in step 2 to evaluate the intracellular PI3K alpha activity.
(§1) The stimulated cells were transferred in a 1.5 mL tube, followed by centrifugation at 3000 rpm for 1 minute. 100 μL of RIPA buffer (radioimmunoprecipitation assay buffer, 50 mM Tris-HCl, 5 mM EDTA, 150 mM NaCl, 1% NP-40, 1 mM PMSF, pH 8.0; ELPIS, Korea) was added thereto, which was stored in a 4° C. refrigerator for 12 hours. Centrifugation was performed at 4° C. at 14,000 rpm for 20 minutes. The supernatant was transferred into a new 1.5 mL tube. Protein was quantified by BCA (bicinchoninic acid) method and samples were prepared. The composition of the sample was as follows: sample buffer (ELPIS, EBA-1052) 5×, protein 10 μg, and 1× sample buffer to make the total volume 20 μL. The sample was heated at 100° C. for 5 minutes. The evaporated water vapor was condensed in a refrigerator. The liquid stained on the wall was fallen down by centrifugation for a few seconds. The sample proceeded to 10% SDS (Sodium Dodecyl Sulfate) acrylamide gel for separation. The separated protein was transferred onto PVDF (poly-vinyl difluoride) membrane, followed by reaction with pAkt (phospho protein kinase B) antibody (Ser473 or Thr308; Cell signaling, 9271s or 13038s) for 12 hours at 4° C. The membrane was washed with TBST (Tris-Buffered Saline with Tween 20, 10 mM Tris-HCl, pH 7.5, 150 mM NaCl, 0.1% Tween-20) three times for 5 minutes each, to which the secondary antibody (rabbit antibody, Santacruz, sc-2004) was added, followed by reaction at room temperature for 2 hours. The membrane was washed with TBST three times for 10 minutes each, to which ECL (enhanced chemiluminescence, Thermo, NCI34095KR) was sprayed. Bands were investigated by using LAS-3000.

[2] = biological target: T2, PI3 Kinase (p110β/p86α) (h) (Homo sapiens, UniProt P42338); assay: Inhibition of phosphatidylinositol 3-kinase beta (PI3K β), pAkt Western blotting in LPA-stimulated PC3 cells; format: cell-based
T2 construct: endogenous in cells; host or cells: PC3
T2 sequence (P42338 whole entry): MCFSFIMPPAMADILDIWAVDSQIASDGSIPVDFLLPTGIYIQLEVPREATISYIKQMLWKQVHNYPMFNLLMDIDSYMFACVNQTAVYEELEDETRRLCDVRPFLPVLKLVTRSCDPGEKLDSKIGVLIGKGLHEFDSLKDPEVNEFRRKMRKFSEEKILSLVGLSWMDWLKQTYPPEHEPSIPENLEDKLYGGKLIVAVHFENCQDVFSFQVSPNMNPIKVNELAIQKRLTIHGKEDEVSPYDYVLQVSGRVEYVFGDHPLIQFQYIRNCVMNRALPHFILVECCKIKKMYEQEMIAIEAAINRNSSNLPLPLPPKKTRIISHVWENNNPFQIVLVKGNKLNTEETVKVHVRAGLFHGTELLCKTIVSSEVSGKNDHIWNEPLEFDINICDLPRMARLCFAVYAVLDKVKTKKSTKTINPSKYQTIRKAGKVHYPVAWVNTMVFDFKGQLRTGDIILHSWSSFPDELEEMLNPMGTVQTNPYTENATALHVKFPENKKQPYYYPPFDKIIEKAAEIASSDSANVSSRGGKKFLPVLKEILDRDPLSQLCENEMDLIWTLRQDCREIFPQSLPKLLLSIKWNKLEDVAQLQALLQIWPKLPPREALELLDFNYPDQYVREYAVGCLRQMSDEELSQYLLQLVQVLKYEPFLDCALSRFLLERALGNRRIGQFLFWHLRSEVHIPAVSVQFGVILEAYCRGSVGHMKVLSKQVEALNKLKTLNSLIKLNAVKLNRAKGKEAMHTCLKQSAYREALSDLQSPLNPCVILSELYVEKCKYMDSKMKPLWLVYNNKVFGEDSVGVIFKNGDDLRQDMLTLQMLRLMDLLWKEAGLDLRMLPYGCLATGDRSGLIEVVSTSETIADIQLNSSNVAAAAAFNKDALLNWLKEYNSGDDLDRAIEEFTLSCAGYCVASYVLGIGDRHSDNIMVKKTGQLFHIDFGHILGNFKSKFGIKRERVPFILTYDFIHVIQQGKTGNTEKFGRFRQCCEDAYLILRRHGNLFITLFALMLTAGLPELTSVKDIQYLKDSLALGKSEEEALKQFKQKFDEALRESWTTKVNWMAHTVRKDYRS
T2 sequence (P27986 whole entry partner): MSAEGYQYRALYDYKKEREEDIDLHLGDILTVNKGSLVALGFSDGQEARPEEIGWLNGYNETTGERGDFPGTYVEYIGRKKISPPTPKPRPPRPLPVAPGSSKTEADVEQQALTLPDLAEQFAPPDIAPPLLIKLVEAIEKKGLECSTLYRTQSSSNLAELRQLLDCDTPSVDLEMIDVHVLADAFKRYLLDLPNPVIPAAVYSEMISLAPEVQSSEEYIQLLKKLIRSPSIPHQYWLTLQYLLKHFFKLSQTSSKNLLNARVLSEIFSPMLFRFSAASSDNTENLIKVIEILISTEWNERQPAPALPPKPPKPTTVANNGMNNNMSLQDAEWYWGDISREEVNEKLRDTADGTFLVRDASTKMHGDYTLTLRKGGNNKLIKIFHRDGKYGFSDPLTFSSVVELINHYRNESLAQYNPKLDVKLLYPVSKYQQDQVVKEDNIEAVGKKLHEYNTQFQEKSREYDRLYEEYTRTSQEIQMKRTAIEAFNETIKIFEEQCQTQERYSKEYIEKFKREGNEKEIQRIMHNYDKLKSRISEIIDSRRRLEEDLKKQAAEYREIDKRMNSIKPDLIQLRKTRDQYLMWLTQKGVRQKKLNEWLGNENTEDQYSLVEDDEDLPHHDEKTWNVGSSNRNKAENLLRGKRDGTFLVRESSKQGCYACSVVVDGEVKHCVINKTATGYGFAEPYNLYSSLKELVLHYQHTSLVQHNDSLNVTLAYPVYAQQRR
Method: as §1
The inhibition of phosphatidylinositol 3 kinase beta (PI3K β) by those compounds prepared in Examples 1˜98 was investigated by the following experiment. The inhibition activity of each compound was measured in the following conditions: ATP=10 uM, and sample concentration=100 nM.
Human prostate cancer cells (PC3 cells) cultured in DMEM (Dulbecco's Modified Eagle Medium, Hyclon, SH30243.01) supplemented with 10% fetal bovine serum (Hyclon, USA) were distributed in a 12-well plate at the density of 1,000,000 cells/well. The cells were stabilized in a 37° C. CO2 for 24 hours and then treated with each compound for 1 and half hours. The cells were treated with 10 ng/mL of LPA (lysophosphatidic acid, 10 μg/mL; R&D, 2150-05) to increase the intracellular activity of PI3K beta. 5 minutes later, the medium was discarded and the cells were washed with cold PBS (phosphate buffered saline, Gibco, 14190-250). PBS was then eliminated completely by using a pipette. Western blotting was performed according to the same manner as described in step 2 of Experimental Example 1 to evaluate the intracellular PI3K beta activity.

PI3 Kinase (p120γ) (h) = biological target: T3, PI3 Kinase (p120γ) (h) (Homo sapiens, UniProt P48736); assay: Inhibition of phosphatidylinositol 3-kinase gamma (PI3K γ), pAkt Western blotting in C5a-stimulated RAW264.7 macrophages; format: cell-based, mouse
T3 construct: endogenous in cells; host or cells: RAW264.7
T3 sequence (P48736 whole entry): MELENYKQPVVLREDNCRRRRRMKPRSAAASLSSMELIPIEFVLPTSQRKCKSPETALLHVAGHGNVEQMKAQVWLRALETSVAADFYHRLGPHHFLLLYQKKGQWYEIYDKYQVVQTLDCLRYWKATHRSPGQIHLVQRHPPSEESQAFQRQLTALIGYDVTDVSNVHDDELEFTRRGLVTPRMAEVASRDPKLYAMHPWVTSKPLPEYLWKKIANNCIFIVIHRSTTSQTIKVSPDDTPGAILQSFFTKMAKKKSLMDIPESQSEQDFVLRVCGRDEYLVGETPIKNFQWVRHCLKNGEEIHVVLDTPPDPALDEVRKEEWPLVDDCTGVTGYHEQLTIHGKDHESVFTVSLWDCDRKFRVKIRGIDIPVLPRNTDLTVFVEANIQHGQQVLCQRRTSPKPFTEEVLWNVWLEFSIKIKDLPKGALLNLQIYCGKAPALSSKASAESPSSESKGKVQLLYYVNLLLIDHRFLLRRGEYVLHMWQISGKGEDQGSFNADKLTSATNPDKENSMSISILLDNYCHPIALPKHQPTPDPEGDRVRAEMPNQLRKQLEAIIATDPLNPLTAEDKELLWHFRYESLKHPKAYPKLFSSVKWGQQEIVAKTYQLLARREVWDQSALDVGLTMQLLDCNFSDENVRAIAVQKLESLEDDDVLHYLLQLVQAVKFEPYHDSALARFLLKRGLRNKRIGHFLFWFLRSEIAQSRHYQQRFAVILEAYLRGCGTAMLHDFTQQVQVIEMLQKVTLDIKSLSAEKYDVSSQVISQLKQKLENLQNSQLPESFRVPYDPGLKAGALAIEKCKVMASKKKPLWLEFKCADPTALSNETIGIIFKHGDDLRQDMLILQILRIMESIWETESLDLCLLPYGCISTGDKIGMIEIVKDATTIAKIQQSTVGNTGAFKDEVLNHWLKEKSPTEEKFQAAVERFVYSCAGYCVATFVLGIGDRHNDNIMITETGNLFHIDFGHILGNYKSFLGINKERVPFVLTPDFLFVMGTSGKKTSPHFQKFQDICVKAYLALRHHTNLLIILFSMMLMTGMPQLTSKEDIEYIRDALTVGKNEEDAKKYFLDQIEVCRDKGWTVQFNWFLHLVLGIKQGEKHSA
Outline: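 Enzyme: PI3Kγ activity measured at ATP=10 uM with compound at 100 nM. Cellular: RAW264.7 macrophages treated with compound 1.5 h, then stimulated with 10 ng/mL C5a for 5 min; lysates (10 μg protein) probed by Western blot for pAkt (Ser473 or Thr308), ECL detection.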

[3] = biological target: T4, PI3 Kinase (p110δ/p85α) (h) (Homo sapiens, UniProt O00329); assay: Inhibition of phosphatidylinositol 3-kinase delta (PI3K δ), pAkt Western blotting in IgM-stimulated Raji cells; format: cell-based
T4 construct: endogenous in cells; host or cells: Raji
Outline: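 Raji cells were treated with compound for 1.5 h, then stimulated with 0.25 μg/mL IgM for 30 min to activate PI3Kδ. Lysates were Western blotted for pAkt (Ser473 or Thr308) with ECL detection. Conditions stated: ATP=10 uM, sample concentration=100 nM.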

Structure (SMILES)	IC50 [1] [nM]	IC50 [2] [nM]	IC50 (PI3 Kinase (p120γ) (h)) [nM]	IC50 [3] [nM]
C[C@H](Nc1ncnc2c1C(=O)N(C)CN2)c1c(Cl)c2cccc(Cl)c2c(=O)n1-c1ccccc1 [Example 40, (S)-5-((1-(4,8-dichloro-1-oxo-2-phenyl-1,2-dihydroisoquinoline-3-yl)ethyl)amino)-3-methyl-2,3-dihydropyrimido[4,5-d]pyrimidine-4(1H)-one]	> 500	> 500	10 to 500	< 10
CCN1CNc2ncnc(N[C@@H](C)c3cc4cccc(Cl)c4c(=O)n3-c3ccccc3)c2C1=O [Example 60, (S)-5-(1-(8-chloro-1-oxo-2-phenyl-1,2-dihydroisoquinoline-3-yl)ethylamino)-3-ethyl-2,3-dihydropyrimido[4,5-d]pyrimidine-4(1H)-one]	> 500	> 500	10 to 500	10 to 500
CCCN1CNc2ncnc(N[C@@H](C)c3cc4cccc(Cl)c4c(=O)n3-c3ccccc3)c2C1=O [Example 61, (S)-5-(1-(8-chloro-1-oxo-2-phenyl-1,2-dihydroisoquinoline-3-yl)ethylamino)-3-propyl-2,3-dihydropyrimido[4,5-d]pyrimidine-4(1H)-one]	> 500	> 500	> 500	> 500
C[C@H](Nc1ncnc2c1C(=O)N(C1CC1)CN2)c1cc2cccc(Cl)c2c(=O)n1-c1ccccc1 [Example 62, (S)-5-(1-(8-chloro-1-oxo-2-phenyl-1,2-dihydroisoquinoline-3-yl)ethylamino)-3-cyclopropyl-2,3-dihydropyrimido[4,5-d]pyrimidine-4(1H)-one]	> 500	> 500	> 500	> 500
C[C@H](Nc1ncnc2c1C(=O)N(C1CCCC1)CN2)c1cc2cccc(Cl)c2c(=O)n1-c1ccccc1 [Example 63, (S)-5-(1-(8-chloro-1-oxo-2-phenyl-1,2-dihydroisoquinoline-3-yl)ethylamino)-3-cyclopentyl-2,3-dihydropyrimido[4,5-d]pyrimidine-4(1H)-one]	> 500	> 500	> 500	> 500

Continued, values first:

IC50 [1] [nM]	IC50 [2] [nM]	IC50 (PI3 Kinase (p120γ) (h)) [nM]	IC50 [3] [nM]	Structure (SMILES)
> 500	> 500	> 500	> 500	O=c1nc[nH]c2ncnc(N3CCC[C@H]3c3nn4ccc(Cl)c4c(=O)n3-c3ccccc3)c12 [Example 79, (S)-5-(2-(5-chloro-4-oxo-3-phenyl-3,4-dihydropyrrolo[2,1-f][1,2,4]triazine-2-yl)pyrrolidine-1-yl)pyrimido[4,5-d]pyrimidine-4(1H)-one]
> 500	> 500	10 to 500	10 to 500	C[C@H](Nc1nc(N)nc2[nH]cnc(=O)c12)c1cc2cccc(Cl)c2c(=O)n1-c1ccccc1 [Example 85, (S)-7-amino-5-(1-(8-chloro-1-oxo-2-phenyl-1,2-dihydroisoquinoline-3-yl)ethylamino)pyrimido[4,5-d]pyrimidine-4(1H)-one]
10 to 500	10 to 500	10 to 500	10 to 500	C[C@H](Nc1nc(N)nc2[nH]cnc(=O)c12)c1cc2ccccc2nc1-c1ccccc1 [Example 88, (S)-7-amino-5-((1-(2-phenylquinoline-3-yl)ethyl)amino)pyrimido[4,5-d]pyrimidine-4(1H)-one]
> 500	> 500	10 to 500	10 to 500	Nc1nc(N2CCC[C@H]2c2nn3ccc(Cl)c3c(=O)n2-c2ccccc2)c2c(=O)nc[nH]c2n1 [Example 95, (S)-7-amino-5-(2-(5-chloro-4-oxo-3-phenyl-3,4-dihydropyrrolo[2,1-f][1,2,4]triazine-2-yl)pyrrolidine-1-yl)pyrimido[4,5-d]pyrimidine-4(1H)-one]
> 500	10 to 500	10 to 500	< 10	C[C@H](Nc1ncnc2c1C(=O)CCN2)c1c(Cl)c2cccc(Cl)c2c(=O)n1-c1ccccc1 [Example 98, (S)-4-((1-(4,8-dichloro-1-oxo-2-phenyl-1,2-dihydroisoquinoline-3-yl)ethyl)amino)-7,8-dihydropyrido[2,3-d]pyrimidine-5(6H)-one]
